Source: ChEMBL document CHEMBL1201862, “PubChem BioAssay data set” (2004)
The source made the active and inactive calls.

What was measured:
Mu-type opioid receptor = Mu-type opioid receptor (Homo sapiens, UniProt P35372); assay: SAR Analysis of Antagonists of the MOR Receptor using an Image-Based Assay - Set 3. [Related pubchem assays (depositor defined):AID1777, AID1785, AID1786, AID1966, AID2133, AID2136, AID2284, AID2285, AID2420]; assay type: functional
[1] = target: T1, Kappa-type opioid receptor (Homo sapiens, UniProt P41145); assay: SAR analysis of small molecule antagonists of the kappa opioid receptor via a luminescent beta-arrestin assay - Set 6. [Related pubchem assays (depositor defined):AID1777, AID1778, AID1785, AID1786, AID1966, AID2133, AID2136, AID2285]; assay type: functional
[2] = target: T1, Kappa-type opioid receptor; assay: SAR analysis of small molecule antagonists of the kappa opioid receptor via a luminescent beta-arrestin assay - Set 4. [Related pubchem assays (depositor defined):AID1777, AID1778, AID1785, AID1786, AID1966, AID2133, AID2136, AID2285]; assay type: functional
[3] = target: Delta-type opioid receptor (Homo sapiens, UniProt P41143); assay: SAR Analysis of Antagonists of the DOR Receptor using an Image-Based Assay - Set 3. [Related pubchem assays (depositor defined):AID1777, AID1785]; assay type: functional;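 further: U2OS cells expressing DOR1 and beta-arrestin GFP stimulated with 100 nM SNC80; imaging of GFP-tagged beta-arrestin moving into spots after receptor activation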
[4] = target: T1, Kappa-type opioid receptor; assay: SAR analysis of Antagonists of the Kappa Opioid Receptor (KOR) using an Image-Based Assay - Set 4. [Related pubchem assays (depositor defined):AID1777, AID1785]; assay type: functional
[5] = NIH/3T3 cell viability loss – mouse embryonic fibroblasts, dry powder, set 2, cytotoxicity control, dose response (AID 493247); assay type: functional, cell-based; settings: Fibroblast
Trypanosoma cruzi = assay: anti-trypanosomal activity in host cells – cell-based, plate reader, dry powder, set 3, dose response (AID 493197); assay type: functional
[6] = target: T2, Tyrosine-protein phosphatase non-receptor type 7 (Homo sapiens, UniProt P35236); assay: SAR analysis of chemical inhibitors of HePTP using a Fluorescent assay - Set 2. [Related pubchem assays (depositor defined):AID1059, AID1077, AID1661, AID2085, AID521]; assay type: functional
T2 sequence (P35236 whole entry): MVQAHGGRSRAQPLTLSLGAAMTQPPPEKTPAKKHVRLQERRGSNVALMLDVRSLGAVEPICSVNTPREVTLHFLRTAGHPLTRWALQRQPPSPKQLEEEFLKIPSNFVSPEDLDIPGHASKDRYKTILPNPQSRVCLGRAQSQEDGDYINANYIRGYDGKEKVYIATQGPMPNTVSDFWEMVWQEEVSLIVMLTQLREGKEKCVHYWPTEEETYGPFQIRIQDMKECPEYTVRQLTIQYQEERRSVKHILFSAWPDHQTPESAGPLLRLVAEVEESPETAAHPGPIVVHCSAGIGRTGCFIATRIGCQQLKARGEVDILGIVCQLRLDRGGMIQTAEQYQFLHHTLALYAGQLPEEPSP

[7] = target: Dual specificity protein phosphatase 3 (Homo sapiens, UniProt P51452); assay: SAR VHR1 Fluorescent Assay for In Vitro dose response studies Set 2. [Related pubchem assays (depositor defined):AID1654, AID1661, AID1878]; assay type: functional
[8] = Luminescence Cell-Based Dose Retest to Confirm Inhibitors of Cancer Stem Cells. [Related pubchem assays (depositor defined):AID2717, AID2721]; assay type: functional; settings: Homo sapiens
[9] = target: DNA damage-inducible transcript 3 protein (Mus musculus, UniProt P35639); assay type: functional, Cricetulus griseus
X-box-binding protein 1 = X-box-binding protein 1 (Homo sapiens, UniProt P17861); assay type: functional, Cricetulus griseus;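 further: confirmatory dose-response counter-screen serving a CHOP assay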
[10] = target: Glyceraldehyde-3-phosphate dehydrogenase (Homo sapiens, UniProt P04406)
[11] = target: Alkaline phosphatase, placental type (Homo sapiens, UniProt P05187); assay: human placental alkaline phosphatase inhibition – biochemical, luminescence, confirmation (AID 1512); assay type: functional
[12] = target: T3, Alkaline phosphatase, tissue-nonspecific isozyme (Homo sapiens, UniProt P05186); assay: potency against alkaline phosphatase TNAP – biochemical, luminescent, dose response, SAR follow-up (AID 1056)
T3 sequence (P05186 whole entry): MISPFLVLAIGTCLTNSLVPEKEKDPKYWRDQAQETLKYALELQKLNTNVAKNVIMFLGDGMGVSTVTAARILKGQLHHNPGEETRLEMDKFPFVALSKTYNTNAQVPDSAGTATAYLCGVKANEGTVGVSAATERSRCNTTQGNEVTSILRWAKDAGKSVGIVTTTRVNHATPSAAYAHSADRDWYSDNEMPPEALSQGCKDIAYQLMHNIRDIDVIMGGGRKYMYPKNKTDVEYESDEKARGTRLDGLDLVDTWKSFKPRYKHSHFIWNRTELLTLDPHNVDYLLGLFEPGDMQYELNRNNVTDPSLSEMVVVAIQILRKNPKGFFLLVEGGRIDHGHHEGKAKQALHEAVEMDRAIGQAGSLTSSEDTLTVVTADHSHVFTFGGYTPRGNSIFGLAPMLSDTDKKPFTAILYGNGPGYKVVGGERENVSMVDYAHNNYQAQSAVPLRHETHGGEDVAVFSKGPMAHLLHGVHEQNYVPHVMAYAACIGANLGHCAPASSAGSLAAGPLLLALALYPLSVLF

[13] = target: 1-acylglycerol-3-phosphate O-acyltransferase ABHD5/Perilipin-5 (Homo sapiens, UniProt Q00G26+Q8WTS1); assay: Luminescence-based biochemical high throughput dose response assay for inhibitors of the interaction of the lipase co-activator protein, abhydrolase domain containing 5 (ABHD5) with perilipin-5 (MLDP; PLIN5) (2K validation set). [Related pubchem assays (depositor defined):AID493035, AID493241]
Perilipin-1/ABHD5 = Perilipin-1/ABHD5 (Homo sapiens, UniProt O60240+Q8WTS1); assay: Luminescence-based biochemical high throughput dose response assay for inhibitors of the interaction of the lipase co-activator protein, abhydrolase domain containing 5 (ABHD5) with perilipin-1 (PLIN1) (2K validation set). [Related pubchem assays (depositor defined):AID493027, AID493057]
Perilipin-1/ABHD5, sequence (Q8WTS1 whole entry, the tested form may be a part): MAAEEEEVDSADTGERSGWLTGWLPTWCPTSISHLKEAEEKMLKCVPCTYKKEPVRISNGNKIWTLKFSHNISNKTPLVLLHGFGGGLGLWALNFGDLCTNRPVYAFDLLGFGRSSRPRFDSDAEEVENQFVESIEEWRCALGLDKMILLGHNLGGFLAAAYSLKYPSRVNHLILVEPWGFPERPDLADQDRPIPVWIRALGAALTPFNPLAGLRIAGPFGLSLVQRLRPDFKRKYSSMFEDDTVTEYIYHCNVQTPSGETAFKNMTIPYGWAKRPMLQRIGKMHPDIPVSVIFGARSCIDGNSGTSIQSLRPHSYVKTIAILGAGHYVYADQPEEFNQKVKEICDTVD
Perilipin-1/ABHD5, sequence (O60240 whole entry, the tested form may be a part): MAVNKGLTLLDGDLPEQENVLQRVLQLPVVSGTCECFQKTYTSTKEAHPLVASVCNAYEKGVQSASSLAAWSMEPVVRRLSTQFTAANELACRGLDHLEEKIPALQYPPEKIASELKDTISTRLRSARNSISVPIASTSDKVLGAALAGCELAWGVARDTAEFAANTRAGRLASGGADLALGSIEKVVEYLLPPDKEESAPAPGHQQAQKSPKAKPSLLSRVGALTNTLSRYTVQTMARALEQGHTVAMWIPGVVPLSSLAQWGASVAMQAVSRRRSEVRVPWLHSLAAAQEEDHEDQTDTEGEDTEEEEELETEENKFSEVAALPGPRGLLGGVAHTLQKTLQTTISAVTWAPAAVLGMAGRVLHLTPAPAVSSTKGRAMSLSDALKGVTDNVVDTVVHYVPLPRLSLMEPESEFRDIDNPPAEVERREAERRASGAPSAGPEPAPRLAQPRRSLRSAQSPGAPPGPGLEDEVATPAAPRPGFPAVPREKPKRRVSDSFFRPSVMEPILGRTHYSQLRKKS

T1 sequence (P41145 whole entry): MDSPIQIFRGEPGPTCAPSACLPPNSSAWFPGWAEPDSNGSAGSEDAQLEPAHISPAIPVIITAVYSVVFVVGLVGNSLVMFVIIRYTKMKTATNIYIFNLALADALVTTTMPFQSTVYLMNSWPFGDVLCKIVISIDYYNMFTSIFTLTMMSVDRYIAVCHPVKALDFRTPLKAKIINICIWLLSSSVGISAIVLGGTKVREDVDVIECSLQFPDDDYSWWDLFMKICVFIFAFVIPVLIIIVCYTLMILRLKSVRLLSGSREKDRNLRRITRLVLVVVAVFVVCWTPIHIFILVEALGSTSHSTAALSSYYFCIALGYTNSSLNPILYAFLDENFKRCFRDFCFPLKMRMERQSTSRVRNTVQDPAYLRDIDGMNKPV
DNA damage-inducible transcript 3 protein, sequence (P35639 whole entry): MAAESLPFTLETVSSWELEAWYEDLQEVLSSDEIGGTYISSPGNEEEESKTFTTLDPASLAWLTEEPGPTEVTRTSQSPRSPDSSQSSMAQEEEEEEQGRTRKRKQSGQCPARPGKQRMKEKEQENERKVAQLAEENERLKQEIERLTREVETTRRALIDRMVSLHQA
1-acylglycerol-3-phosphate O-acyltransferase ABHD5/Perilipin-5, sequence (Q00G26 whole entry, the tested form may be a part): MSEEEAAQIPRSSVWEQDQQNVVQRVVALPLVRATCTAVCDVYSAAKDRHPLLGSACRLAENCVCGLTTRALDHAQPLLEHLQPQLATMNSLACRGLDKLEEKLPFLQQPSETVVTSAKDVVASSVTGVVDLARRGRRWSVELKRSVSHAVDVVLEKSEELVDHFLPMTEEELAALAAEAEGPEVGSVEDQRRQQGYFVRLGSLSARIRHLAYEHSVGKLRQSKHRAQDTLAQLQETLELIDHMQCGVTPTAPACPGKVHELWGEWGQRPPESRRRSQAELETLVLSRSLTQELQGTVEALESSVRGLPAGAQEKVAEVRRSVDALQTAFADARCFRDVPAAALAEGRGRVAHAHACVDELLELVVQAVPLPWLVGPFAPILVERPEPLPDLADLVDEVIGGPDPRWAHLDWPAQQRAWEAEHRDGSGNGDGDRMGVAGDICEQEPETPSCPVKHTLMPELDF
1-acylglycerol-3-phosphate O-acyltransferase ABHD5/Perilipin-5, sequence (Q8WTS1 whole entry, the tested form may be a part): as the sequence (Q8WTS1 whole entry, the tested form may be a part) above
X-box-binding protein 1, sequence (P17861 whole entry): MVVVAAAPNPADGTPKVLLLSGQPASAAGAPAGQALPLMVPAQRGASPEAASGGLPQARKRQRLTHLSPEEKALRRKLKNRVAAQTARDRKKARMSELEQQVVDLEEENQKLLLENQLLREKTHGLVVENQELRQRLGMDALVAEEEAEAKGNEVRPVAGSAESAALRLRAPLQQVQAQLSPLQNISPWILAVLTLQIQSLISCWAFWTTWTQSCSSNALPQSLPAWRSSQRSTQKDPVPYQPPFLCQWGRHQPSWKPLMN
Dual specificity protein phosphatase 3, sequence (P51452 whole entry): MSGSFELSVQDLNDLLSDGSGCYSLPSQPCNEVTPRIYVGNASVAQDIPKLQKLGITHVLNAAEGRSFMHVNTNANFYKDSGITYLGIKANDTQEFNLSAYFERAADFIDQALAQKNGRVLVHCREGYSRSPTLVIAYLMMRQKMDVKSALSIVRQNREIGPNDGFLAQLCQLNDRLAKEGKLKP
Glyceraldehyde-3-phosphate dehydrogenase, sequence (P04406 whole entry): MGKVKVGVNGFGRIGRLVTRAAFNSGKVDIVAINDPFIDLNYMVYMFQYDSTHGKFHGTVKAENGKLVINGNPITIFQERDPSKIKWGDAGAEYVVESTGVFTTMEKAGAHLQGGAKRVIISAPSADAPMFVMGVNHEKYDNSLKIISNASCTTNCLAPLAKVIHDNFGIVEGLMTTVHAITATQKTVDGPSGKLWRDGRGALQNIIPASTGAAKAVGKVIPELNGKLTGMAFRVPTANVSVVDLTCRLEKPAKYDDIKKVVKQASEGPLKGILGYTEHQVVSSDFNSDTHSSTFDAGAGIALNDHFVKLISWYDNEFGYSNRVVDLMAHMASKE
Alkaline phosphatase, placental type, sequence (P05187 whole entry): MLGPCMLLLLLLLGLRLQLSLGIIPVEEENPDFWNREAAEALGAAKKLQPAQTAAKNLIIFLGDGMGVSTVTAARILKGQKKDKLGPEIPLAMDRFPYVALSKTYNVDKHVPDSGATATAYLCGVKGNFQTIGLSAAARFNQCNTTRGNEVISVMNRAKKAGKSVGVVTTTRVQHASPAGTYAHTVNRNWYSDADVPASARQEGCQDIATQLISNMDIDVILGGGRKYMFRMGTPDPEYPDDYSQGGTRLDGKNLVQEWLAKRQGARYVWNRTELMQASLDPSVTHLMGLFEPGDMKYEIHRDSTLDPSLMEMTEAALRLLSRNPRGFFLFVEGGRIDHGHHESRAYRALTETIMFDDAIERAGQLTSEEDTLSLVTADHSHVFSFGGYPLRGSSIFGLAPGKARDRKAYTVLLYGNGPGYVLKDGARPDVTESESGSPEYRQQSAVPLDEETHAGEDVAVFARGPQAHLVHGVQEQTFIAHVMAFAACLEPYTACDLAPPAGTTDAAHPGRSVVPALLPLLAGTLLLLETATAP
Mu-type opioid receptor, sequence (P35372 whole entry): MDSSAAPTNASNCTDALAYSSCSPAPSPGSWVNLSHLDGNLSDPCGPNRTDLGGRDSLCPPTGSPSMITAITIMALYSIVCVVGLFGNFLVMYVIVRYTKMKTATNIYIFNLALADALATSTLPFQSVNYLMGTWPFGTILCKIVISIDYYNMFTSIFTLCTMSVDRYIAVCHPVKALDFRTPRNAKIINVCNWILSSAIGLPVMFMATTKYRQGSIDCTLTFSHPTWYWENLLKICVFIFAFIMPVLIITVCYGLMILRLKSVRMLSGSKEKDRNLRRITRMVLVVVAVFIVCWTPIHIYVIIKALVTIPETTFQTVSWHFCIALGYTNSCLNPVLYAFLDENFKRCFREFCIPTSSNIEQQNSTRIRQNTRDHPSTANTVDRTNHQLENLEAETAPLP
Delta-type opioid receptor, sequence (P41143 whole entry): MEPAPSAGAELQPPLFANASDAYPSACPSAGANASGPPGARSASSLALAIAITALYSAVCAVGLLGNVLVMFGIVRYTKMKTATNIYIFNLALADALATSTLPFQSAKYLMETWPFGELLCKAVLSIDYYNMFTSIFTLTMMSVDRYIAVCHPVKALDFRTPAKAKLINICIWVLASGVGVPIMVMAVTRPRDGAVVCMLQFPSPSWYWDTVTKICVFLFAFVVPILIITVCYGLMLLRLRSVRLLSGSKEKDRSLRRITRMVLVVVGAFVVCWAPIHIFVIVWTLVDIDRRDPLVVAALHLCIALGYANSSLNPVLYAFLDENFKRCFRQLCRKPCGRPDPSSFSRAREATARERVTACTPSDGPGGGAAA

## CCCCc1ccc(S(=O)(=O)NCc2ccc(C(=O)NCCN(Cc3ccccc3)C(C)C)cc2)cc1
Mu-type opioid receptor
  IC50: > 32 µM (inactive)
[1]
  IC50: 4.73 µM (active)
[2]
  IC50: 3.01 µM (active)
[3]
  IC50: > 32 µM (inactive)
[4]
  IC50: 0.168 µM (active)

## O=C(CCc1ccccc1)N/N=C/c1ccc([N+](=O)[O-])o1
[5]
  AC50: 26.3 µM (active)
Trypanosoma cruzi
  AC50: 0.335 µM (active)

## COc1ccc(OC)c(C(=S)NCc2cccc(F)c2)c1
[6]
  IC50: 64 µM (active)
[7]
  IC50: 65.2 µM (active)

## Oc1ccccc1-n1c(-c2ccccc2)ccc1-c1ccccc1
[8]
  AC50: 4.28 µM (active)
[9]
  Absolute IC50 (CHOP): 10 µM
X-box-binding protein 1
  Absolute IC50 (XBP1): 10 µM

## CCN(CC)C(=O)CSc1nnc(-c2ccccc2OC)[nH]1
[10]
  IC50: > 100 µM (not active)
[11]
  IC50: > 100 µM (inactive)
[12]
  IC50: 17.6 µM (active)

## COc1cccc(/C=C/C(=O)c2c(O)cc(C)oc2=O)c1O
[13]
  IC50: 9.96 µM (active)
Perilipin-1/ABHD5
  IC50: 6.79 µM (active)
